Assay results reported in ChEMBL document CHEMBL1201862, “PubChem BioAssay data set” (2004).
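Values below derive from 48-hour exposures of cells grown in 96-well plates, with endpoints linearly interpolated between the two concentrations bracketing the appropriate inhibition level. The concentration for 50% growth inhibition is given as GI50.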 The source made the active and inactive calls. Rule as the data show it: active = GI50 up to about 1.1 µM and inactive = higher.

How the values were obtained:
Experiment in all cases: NCI tumour cell line growth inhibition, 48 h
SNB-78 = system: SNB-78
DMS-114 = system: DMS-114
LXFL 529 = system: LXFL 529
DLD-1 = system: DLD-1
XF498 = system: XF498
KM-20L2 = system: KM-20L2
DMS-273 = system: DMS-273
786-0 = system: 786-0
RXF 631 = system: RXF 631

| Compound | GI50 (SNB-78) | GI50 (DMS-114) | GI50 (LXFL 529) | GI50 (DLD-1) | GI50 (XF498) | GI50 (KM-20L2) | GI50 (DMS-273) | GI50 (786-0) | GI50 (RXF 631) |
| --- | --- | --- | --- | --- | --- | --- | --- | --- | --- |
| COC[C@@H](Cc1ccc(OC)c(OC)c1)[C@@H](COC)Cc1ccc(OC)c(OC)c1 | > 100 µM (inactive) | 56.5 µM (inactive) | 81.7 µM (inactive) | > 100 µM (inactive) | > 100 µM (inactive) | > 100 µM (inactive) | 76.6 µM (inactive) |  |  |
| O=C(NNC(=O)c1nsc2ccccc12)c1ccc(Cl)cc1 | 24.8 µM (inactive) | > 10 µM (inactive) | 19.7 µM (inactive) |  |  | 19.8 µM (inactive) | 8.11 µM (inactive) |  |  |
| CN(C)/N=N/c1ccc([N+](=O)[O-])cc1C(N)=O | > 100 µM (inactive) | > 100 µM (inactive) |  | > 100 µM (inactive) | > 100 µM (inactive) | > 100 µM (inactive) | > 100 µM (inactive) |  |  |
| CN(NC(=O)c1cccs1)C1=NCCCN1 |  |  |  |  |  |  |  | > 100 µM (inactive) |  |
| CCCn1cc2c3c(cccc31)C1C=C(C)CN(C)C1C2 (centres undefined) | 30.3 µM (inactive) | 15.1 µM (inactive) |  | 20.7 µM (inactive) |  | 13 µM (inactive) | 13.3 µM (inactive) |  |  |
| Nc1nnc(CCC(=O)Nc2cc(Cl)ccc2Cl)n1N | > 100 µM (inactive) | > 100 µM (inactive) | > 100 µM (inactive) | > 100 µM (inactive) | > 100 µM (inactive) | > 100 µM (inactive) | > 100 µM (inactive) |  | > 100 µM (inactive) |
| CC(=O)/N=C1/N(/C=C2\C(=O)Oc3ccccc3C2=O)C(=O)/C(=C/c2ccc(NC(C)=O)cc2)N1C |  |  |  |  |  |  |  | > 100 µM (inactive) |  |
| COc1cccc(C2C(C(=O)O)=C(CO)Oc3cc4c(cc32)OCO4)c1 (centres undefined) | > 100 µM (inactive) | > 100 µM (inactive) | > 100 µM (inactive) | > 100 µM (inactive) | 36.5 µM (inactive) | > 100 µM (inactive) |  |  |  |
| CCN1C(=O)c2cc(OC)c(OC)cc2C(=O)C12OC(=O)c1cc3c(cc12)OCO3 (centres undefined) |  |  |  |  |  |  |  | 22.4 µM (inactive) |  |
| C=C1c2nc3ccccc3n2C=C(c2ccccc2)N1c1ccc([N+](=O)[O-])cc1 |  |  |  |  |  |  |  | 0.855 µM (active) |  |
| Brc1cccc(Nc2ncnc3sc4c(c23)CCC(Nc2cccc(Br)c2)C4)c1 (centres undefined) |  |  |  |  |  |  |  | > 100 µM (inactive) |  |
| C=COCCCOc1ccccc1 |  | > 100 µM (inactive) | > 100 µM (inactive) | > 100 µM (inactive) | > 100 µM (inactive) | > 100 µM (inactive) | > 100 µM (inactive) |  |  |
| CCOc1c(/N=N/c2ccccc2Cl)c(-c2ccccc2)nn1C(=S)S |  |  |  |  |  |  |  | 37.4 µM (inactive) |  |
| CCCCNC1=C2C(=O)NN=C2CO1 | > 100 µM (inactive) | > 100 µM (inactive) | 39.8 µM (inactive) | > 100 µM (inactive) | > 100 µM (inactive) | > 100 µM (inactive) | > 100 µM (inactive) |  | > 100 µM (inactive) |
| COc1cccc(/C=C/C(=O)N2CC(CCl)c3c2cc(N)c2ccccc32)c1 (centres undefined) |  |  |  |  |  |  |  | 0.00106 µM (active) |  |
| C=C1C(=O)O[C@@H]2[C@H]3O[C@]3(C)CCC=C(C)CC[C@@H]12 | 18.2 µM (inactive) | 45.9 µM (inactive) |  | 12.5 µM (inactive) | 16.9 µM (inactive) | 24.8 µM (inactive) | 24.6 µM (inactive) |  |  |
